The test system of one series is HSV-2 strain HG52. Kind of series: HSV-2 viral yield reduction assay in Vero cells.
In the next series the test system is HIV-1DV. Put plainly: HIV-1 p24 production in SUP T1 cells. In kind it is cell-based. Particulars: SUP T1, HIV-1DV, four days.
Series [1] deals with HIV-1 gp120 interaction with CD4 (Human immunodeficiency virus type 1 group M subtype B, UniProt P04578).
For series [2], the system named is SUP T1 cells.
In series [3] the target is T1, FMLV reverse transcriptase (Friend murine leukemia virus, UniProt P26810).
T1 construct: Culture media containing FMLV reverse transcriptase (RT) was mixed with various concentrations; endogenous in cells; host or cells: culture medium of FMLV-infected murine fibroblasts (pLRB215)
Put plainly: Reverse transcriptase assay (ELOSA). It is filed as biochemical. Particulars: read-out: inhibitory concentration for 50% reduction in RT activity.

Another series concerns the target HIV-1 RT (Human immunodeficiency virus type 1 group M subtype B, UniProt P04585). Kind of series: In vitro inhibition of HIV-1 RT (kinetic analysis). In kind it is biochemical.
In the next series the test system is HIV-1 strain DV. Put plainly: HIV-1 induced syncytia formation assay in SUP T1 cells. It is filed as cell-based. Particulars: SUP T1, HIV-1DV, four days; read-out: IC50 Syn (syncytium inhibition).
Series [4] concerns HIV-1 strains (SKI, RF, DV, IIIB, ADP/141). Kind of series: microbe, parasite or virus in culture. It is filed as cell-based.
In the next series the test system is HIV-2 (ROD, EHO). Put plainly: HIV-2 infection assay in MT4 cells. Particulars: read-out: IC50 virus production. It is filed as cell-based.
A further series deals with SIVMAC251. In kind it is cell-based, simian immunodeficiency virus. Particulars: SIVMAC251, MT4; read-out: IC50 virus production.
In series [5] the test system is Vesicular Stomatitis virus.
The next series has as its system Influenza A (H3N2). Particulars: Influenza A (H3N2) assay.
Series [6] deals with recombinant HIV-1 integrase (wild-type) (Human immunodeficiency virus type 1 group M subtype B, UniProt P12497). Put plainly: HIV-1 integrase 3′-processing and strand transfer assays. It is filed as biochemical. Also noted: Purified recombinant HIV-1 integrase enzyme (wild-type) was a generous gift from Dr. R. Craigie; purchased gift of Dr. R. Craigie, Laboratory of Molecular Biology, NIDDK (not bought). How it is done: Integrase enzyme assays. Purified recombinant HIV-1 integrase enzyme (wild-type) was a generous gift from Dr. R. Craigie, Laboratory of Molecular Biology, National Institute of Diabetes and Digestive and Kidney Diseases. The enzyme (0.25 μM) was preincubated in reaction buffer at 20° C. for 30 minutes. All 3′-processing and strand-transfer reactions were performed as described previously by Fresen et al. (Fresen, et al., Proc. Natl. Acad. Sci. USA 90:2399-2403 (1993)) and Mazumder et al. (Mazumder, et al., Proc. Natl. Acad. Sci. USA 91:5771-5775 (1994)). Enzyme reactions were quenched by the addition of Maxam-Gilbert loading dye, and an aliquot was electrophoresed on a denaturing 20% polyacrylamide gel. Gels were then dried and subjected to autoradiography using Kodax XAR-2 film or exposed in a Molecular Dynamics Phospholmager cassette.
Integrase was preincubated at a final concentration of 200 (for HIV-1 and HIV-2) or 600 nM (for FIV and SIV) with inhibitor in reaction buffer (50 mM Nac1, 1 mM HEPES, pH 7.5, 50 μM dithiothreitol, 10% glycerol (wt/vol), 7.5 mM MnCl2 or MgCL2 (when specified), 0.1 mg/mL bovine serum albumin, 20 mM 2-mercaptoethanol, 10% dimethyl sulfoxide, and 25 mM MOPS, pH 7.2) at 30° C. for 30 minutes. When magnesium was used as the divalent metal ion, polyethylene glycol was added at a final concentration of 5% to increase activity as previously described (Engelman & Craigie, 1995). Preincubation for 30 minutes of the enzyme with inhibitor was performed to optimize increases the inhibitory activity in the 3′-processing reaction (Fesen et al., 1994). Then, 30 nM of the 5′-end ^32P-labeled linear oligonucleotide substrate was added, and incubation was continued for an additional 1 hr. The final reaction volume was 16 μL.
Electrophoresis and quantitation. Reactions were quenched by the addition of an equal volume […] of loading dye (98% deionized formamide, 10 mM EDTA, 0.025% xylene cyanol, 0.025% bromophenol blue). An aliquot (5 μL) was electrophoresed on a denaturing 20% polyacrylamide gel (0.09 M Tris-borate pH 8.3, 2 mM EDTA, 20% acrylamide, 8M urea). Gels were dried, exposed in a Molecular Dynamics Phosphorimager cassette, and analyzed using a Molecular Dynamics phosphorimager (Sunnyvale, Calif.). Percent inhibition was calculated using the following equation:
where C, N, and D are the fractions of 21mer substrate converted to 19mer (3′-processing product) or strand transfer products for DNA alone, DNA plus integrase, and integrase plus drug, respectively.
Antiviral assay. The RF laboratory strain of HIV-1 was used to infect established cell lines for one hour at 37° C. prior to washing and resuspension in medium containing increasing concentrations of drug. […] Purified recombinant HIV-1 integrase enzyme (wild-type) was a generous gift from Dr. Craigie, Laboratory of Molecular Biology, NIDDK. All 3′-processing and strand-transfers were performed as described previously by Fresen et al. (Fresen et al. (1993) Proc. Natl. Acad. Sci. VSA 90, 2399-2403) and Mazurnder et al. (Mazumder et al. (1994) Proc. Natl. Acad. Sci. USA 91, 5771-75).

Series [7] deals with SUP T1 cells. Kind of series: Cytotoxicity assay, CellTiter 96 (MTS), SUP T1 cells. Particulars: read-out: TC50 (concentration reducing cell proliferation by 50%); SUP T1, dye (MTS) metabolism assay.
A further series concerns HSV-1 IE175 promoter. Put plainly: Eukaryotic in vitro transcription (HeLa cell nuclear extract).
The target in a further series is T7 polymerase (Escherichia phage T7, UniProt P00573). Kind of series: Bacterial T7 in-vitro transcription assay. In kind it is biochemical. How it is done:
In this assay system, a 2 kb fragment (HindIII to EcoR1) of the FMLV virus (clone 57) was molecularly cloned between the HindIII/EcoR1 sites 10 bp downstream of the bacterial T7 promoter (p275A) or 50 bp downstream of the bacterial T3 promoter (pBSFMLV2). A schematic representation of these two recombinant plasmids can be seen in FIG. 1. Isolated recombinant DNA was then digested with DdeI. Oligonucleotides were then incubated with the digested DNA and the mixture was subjected to in-vitro transcription using either the T7 or T3 bacterial enzymes.

We go through four substances from patent US6355785B1, “Guanosine-rich oligonucleotide integrase inhibitors” (Aronex Pharmaceuticals, Inc., priority 1993, dated 2002).

What is called Ki is the equilibrium dissociation constant of an inhibitor or competing ligand from its target. A low value points to a stronger hold on the target.

Like-named read-outs stand apart in the source and are kept apart here. In the oligonucleotide strings, read from the 5' end, every base follows the letter of its sugar. An asterisk marks phosphorothioate; unmarked linkages are phosphodiester. Other units and linkages are bracketed, terminal groups are in braces. A string of capitals states the bases alone. d = 2'-deoxy (DNA)

Sequence of T7 polymerase (P00573 whole entry, the tested form may be a part): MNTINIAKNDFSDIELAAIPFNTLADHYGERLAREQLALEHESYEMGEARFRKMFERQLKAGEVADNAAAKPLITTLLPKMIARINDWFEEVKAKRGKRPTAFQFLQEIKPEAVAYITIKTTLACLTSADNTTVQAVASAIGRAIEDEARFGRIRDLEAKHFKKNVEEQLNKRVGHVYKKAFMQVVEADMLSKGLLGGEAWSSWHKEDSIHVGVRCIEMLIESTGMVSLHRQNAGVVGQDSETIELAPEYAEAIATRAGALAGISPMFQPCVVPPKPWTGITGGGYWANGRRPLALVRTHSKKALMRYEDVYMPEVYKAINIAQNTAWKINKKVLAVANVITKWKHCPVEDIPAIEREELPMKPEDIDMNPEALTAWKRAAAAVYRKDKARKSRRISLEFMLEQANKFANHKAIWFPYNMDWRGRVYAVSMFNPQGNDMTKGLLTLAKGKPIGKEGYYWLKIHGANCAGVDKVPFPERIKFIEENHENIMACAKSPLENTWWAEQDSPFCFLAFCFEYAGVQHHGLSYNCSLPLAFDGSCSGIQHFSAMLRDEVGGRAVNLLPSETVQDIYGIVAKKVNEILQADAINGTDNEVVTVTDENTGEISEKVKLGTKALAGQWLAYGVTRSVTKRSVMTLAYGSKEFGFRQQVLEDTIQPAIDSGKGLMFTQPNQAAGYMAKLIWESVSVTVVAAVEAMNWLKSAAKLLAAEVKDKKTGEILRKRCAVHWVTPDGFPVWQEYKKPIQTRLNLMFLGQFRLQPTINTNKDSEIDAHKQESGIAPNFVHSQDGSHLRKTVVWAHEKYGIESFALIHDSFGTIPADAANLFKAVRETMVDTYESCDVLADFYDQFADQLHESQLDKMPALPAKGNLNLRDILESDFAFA

In the case of “B106-97: fully phosphorothioated version of B106-71 (dG*dT*dG*dG*dT*dT*dG*dG*dT*dG*dG*dT*dG*dG*dT*dG*dT*dG*dT*dG*dG*dG*dT*dT*dT*dG*dG*dG*dG*dT*dG*dG*dG*dG*dG*dG; 3' end capped with propanolamine or cholesterol, which one not given here)”, the “concentration reducing virus by 50%” value in the series on HSV-2 strain HG52 is given as “same levels as B106-96”.

For “5′-gttgggggttgttggtggggtggtgg-3′ [I100-12] (GTTGGGGGTTGTTGGTGGGGTGGTGG; phosphorothioate backbone, further chemistry not given here) [PT version of I100-00]”, the IC50 in the series with HIV-1DV is under 200 nM; in series [1] (read-out: ID50 [CD4], oligo binding to immobilized CD4), 475 nM; in [1] (read-out: ID50 [gp 120], oligo preincubated with soluble gp120), 80 nM; in series [3], under 500 nM; with HIV-1 RT (read-out: ID50 (the source's name)), 15 nM; with HIV-1 strain DV, 225 nM. In the series with SUP T1 cells [2], the CC50 is 18000 nM. For the same substance, in the series with HIV-1 RT, the Ki worked out at 5 nM.

As to “Dextran sulfate [DS5000, reference compound]”, the IC50 virus-induced cytopathogenicity is 2 µg/mL with HSV-1 (HSV-1 (KOS)); 2 µg/mL in the series with HSV-1 (HSV-1 TK (B2006)); 2 µg/mL in the series with HSV-1 (HSV-1 TK (VMW1837)); over 400 µg/mL in the series with Polio virus-1; 13 µg/mL in the series with Junin virus; over 400 µg/mL in the series with Semliki forest virus (Semliki forest virus). For the same substance, the IC50 virus-induced cytopathogenicity in the series on Sindbis virus (Sindbis virus) is 10 µg/mL; in series [5], 20 µg/mL; in the series on Tacaribe, 13.5 µg/mL; with RSV (A2) (RSV (A2)), 4 µg/mL; in the series with HSV-2 (G) (HSV-2 (G)), 2 µg/mL; with Vaccinia virus it was over 400 µg/mL. Moreover, the values for the IC50 virus-induced cytopathogenicity with Yellow Fever virus, in the series with Coxsackie virus (B4) (Coxsackie virus (B4)) and in the series with Punta Toro virus (Punta Toro virus) were 26 µg/mL, over 400 µg/mL and 10.9 µg/mL, respectively. In addition, the “MCC minimum concentration altering normal cell morphology” value with HSV-1 (HSV-1 (KOS) assay) is reported as over 400 μg/mL; in the series with HSV-1 (HSV-1 TK (B2006) assay), over 400 μg/mL; in the series with HSV-1 (HSV-1 TK (VMW1837) assay), over 400 μg/mL; with Polio virus-1 it was over 400 μg/mL; in the series on Junin virus, over 200 μg/mL; in the series with Semliki forest virus (Semliki forest virus assay) it was over 400 μg/mL. Further, the “MCC minimum concentration altering normal cell morphology” value is reported as over 400 μg/mL with Sindbis virus (Sindbis virus assay); over 400 μg/mL in series [5]; over 200 μg/mL with Tacaribe; over 200 μg/mL with RSV (A2) (RSV (A2) assay); over 400 μg/mL with Influenza A (H3N2); over 400 μg/mL in the series with HSV-2 (G) (HSV-2 (G) assay). In addition, the “MCC minimum concentration altering normal cell morphology” value in the series on Vaccinia virus is over 400 μg/mL; in the series with Yellow Fever virus, over 200 μg/mL; in the series with Coxsackie virus (B4) (Coxsackie virus (B4) assay) it was over 400 μg/mL; with Punta Toro virus (Punta Toro virus assay) it was over 400 μg/mL. The IC50 came to 32 ± 8 nM in series [4] (HIV-1 ADP/141 (AZT resistant), MT4, read-out: IC50 virus production); 31 nM in [4] (HIV-1 IIIB, CEM-SS or MT4, read-out: Antiviral Assay IC50 IIIB); 34 ± 16 nM in series [4] (HIV-1 IIIB, MT4, read-out: IC50 virus production); 16 nM in series [4] (HIV-1 RF, CEM-SS or MT4, read-out: Antiviral Assay IC50 RF); 18 ± 20 nM in series [4] (HIV-1 RF, MT4, read-out: IC50 virus production); 84 ± 86 nM in the series with HIV-2 (ROD, EHO) (HIV-2EHO). In addition, the IC50 in the series with HIV-2 (ROD, EHO) (HIV-2ROD) was 82 ± 88 nM; with SIVMAC251, 548 ± 480 nM; in [6] (3′-processing, read-out: Anti-Integrase Assay IC50 3′-proc), 70 nM; in [6] (strand transfer, read-out: Anti-Integrase Assay IC50 strand tran.) it was 60 nM.

For “5′-gatccatgtcagtgacactgcgtagatccgatgatccagtcgatg-3′ [I100-11]”, in the series on SUP T1 cells [7], the CC50 is 46500 nM. The “eukaryotic transcription from HSV-1 IE175 promoter” value with HSV-1 IE175 promoter is given as “capable of inhibiting eukaryotic transcription”. Also, the T7 directed transcription result on T7 polymerase is “increased the level of specific transcripts”.
